Assay results as given in patent US20230131899A1, “INHIBITORS OF MICROBIALLY INDUCED AMYLOID” (Axial Therapeutics, Inc., priority 2020, published 2023).
Where two headings read alike, the source gives them in different places.

Biological target: T1, E. coli CsgA (Escherichia coli, UniProt P28307)
T1 construct: made in house; host or cells: E. coli NEB 3016 slyD::kan, pET11d
Test: In vitro ThioflavinT assay of CsgA aggregation (CsgA ThT Assay)
Format: biochemical
Details: 1005 minutes; for remaining activity at 25 µM: compound 25 μM; for remaining activity at 100 µM: compound 100 μM
Outline: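 Purified C-terminal His-tagged CsgA, monomerised by desalting and 30-kDa filtration, at 2-20 μM with 20-40 μM ThT in 50 mM potassium phosphate pH 7.3, 1% DMSO, compounds 3.125-200 uM; room temperature, fluorescence (ex 438/em 495 nm) read every 15 min. Background-subtracted signal expressed as percent inhibition versus vehicle at 6-6.5 or 8-9 h, or as percent control AUC.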

[1] = read-out: CsgA ThT Assay (10 μM CsgA) % Control AUC at 1005 minutes, 25 μM (activity range), CsgA 10 μM, black plates, class symbol
[2] = read-out: CsgA ThT Assay (10 μM CsgA) % Control AUC at 1005 minutes, 25 μM, mean AUC as % of DMSO control, CsgA 10 μM, black plates
[3] = read-out: CsgA ThT Assay (10 μM CsgA) % Control AUC at 1005 minutes, 100 μM (activity range), CsgA 10 μM, black plates, class symbol
[4] = read-out: CsgA ThT Assay (10 μM CsgA) % Control AUC at 1005 minutes, 100 μM, mean AUC as % of DMSO control, CsgA 10 μM, black plates

T1 sequence (P28307 23-151): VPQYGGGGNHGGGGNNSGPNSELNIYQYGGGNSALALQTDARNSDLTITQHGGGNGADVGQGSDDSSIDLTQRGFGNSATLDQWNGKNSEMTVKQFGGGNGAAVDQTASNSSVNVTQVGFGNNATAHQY

O=C(O)C1CSc2c(-c3cccc(C(F)(F)F)c3)c(Cc3cccc4ccccc34)cc(=O)n21 (racemic) [Compound 011, 7-(naphthalen-1-ylmethyl)-5-oxo-8-(3-(trifluoromethyl)phenyl)-2,3-dihydro-5H-thiazolo[3,2-a]pyridine-3-carboxylic acid]
remaining activity at 25 µM [1]: > 60%
remaining activity at 25 µM [2]: 63%
remaining activity at 100 µM [3]: > 60%
remaining activity at 100 µM [4]: 62%

CCCN1CC(C(=O)O)n2c(c(-c3cccc(C(F)(F)F)c3)c(Cc3cccc4ccccc34)cc2=O)S1(=O)=O (racemic) [Compound 016, 8-(naphthalen-1-ylmethyl)-6-oxo-2-propyl-9-(3-(trifluoromethyl)phenyl)-3,4-dihydro-2H,6H-pyrido[1,2-e][1,2,5]thiadiazine-4-carboxylic acid 1,1-dioxide]
remaining activity at 25 µM [1]: 31 to 60%
remaining activity at 25 µM [2]: 48%
remaining activity at 100 µM [3]: 31 to 60%
remaining activity at 100 µM [4]: 33%

Nc1c(Cc2cccc3ccccc23)c(-c2cccc(C(F)(F)F)c2)c2n(c1=O)C(C(=O)O)CS2 (racemic) [Compound 020, 6-amino-7-(naphthalen-1-ylmethyl)-5-oxo-8-(3-(trifluoromethyl)phenyl)-2,3-dihydro-5H-thiazolo[3,2-a]pyridine-3-carboxylic acid]
remaining activity at 25 µM [1]: 11 to 31%
remaining activity at 25 µM [2]: 18%
remaining activity at 100 µM [3]: < 10%
remaining activity at 100 µM [4]: 7%

CCCCCN1CC(C(=O)O)n2c(c(-c3cccc(C(F)(F)F)c3)c(Cc3cccc4ccccc34)cc2=O)S1(=O)=O (racemic) [Compound 025, 8-(naphthalen-1-ylmethyl)-6-oxo-2-pentyl-9-(3-(trifluoromethyl)phenyl)-3,4-dihydro-2H,6H-pyrido[1,2-e][1,2,5]thiadiazine-4-carboxylic acid 1,1-dioxide]
remaining activity at 25 µM [1]: 31 to 60%
remaining activity at 25 µM [2]: 49%

O=C(O)C1C[S+]([O-])c2c(-c3cccc(C(F)(F)F)c3)c(Cc3cccc4ccccc34)cc(=O)n21 (racemic) [Compound 027b, 7-(naphthalen-1-ylmethyl)-5-oxo-8-(3-(trifluoromethyl)phenyl)-2,3-dihydro-5H-thiazolo[3,2-a]pyridine-3-carboxylic acid 1-oxide]
remaining activity at 25 µM [1]: > 60%
remaining activity at 25 µM [2]: 108%
remaining activity at 100 µM [3]: > 60%
remaining activity at 100 µM [4]: 74%

O=C(O)[C@@H]1CS(=O)(=O)c2c(-c3cccc(C(F)(F)F)c3)c(Cc3cccc4ccccc34)cc(=O)n21 (single isomer, unassigned) [Compound 010a, 7-(naphthalen-1-ylmethyl)-5-oxo-8-(3-(trifluoromethyl)phenyl)-2,3-dihydro-5H-thiazolo[3,2-a]pyridine-3-carboxylic acid 1,1-dioxide]
remaining activity at 25 µM [1]: > 60%
remaining activity at 25 µM [2]: 85%
remaining activity at 100 µM [3]: 31 to 60%
remaining activity at 100 µM [4]: 37%

O=C(O)[C@H]1CS(=O)(=O)c2c(-c3cccc(C(F)(F)F)c3)c(Cc3cccc4ccccc34)cc(=O)n21 (single isomer, unassigned) [Compound 010b, 7-(naphthalen-1-ylmethyl)-5-oxo-8-(3-(trifluoromethyl)phenyl)-2,3-dihydro-5H-thiazolo[3,2-a]pyridine-3-carboxylic acid 1,1-dioxide]
remaining activity at 25 µM [1]: > 60%
remaining activity at 25 µM [2]: 85%
remaining activity at 100 µM [3]: 31 to 60%
remaining activity at 100 µM [4]: 45%

O=C(O)C1CSc2c(-c3cccc(C(F)(F)F)c3)c(Cc3cccc4ccccc34)cc(=O)n21 (single isomer, unassigned) [Compound 011a, 7-(naphthalen-1-ylmethyl)-5-oxo-8-(3-(trifluoromethyl)phenyl)-2,3-dihydro-5H-thiazolo[3,2-a]pyridine-3-carboxylic acid]
remaining activity at 25 µM [1]: 31 to 60%
remaining activity at 25 µM [2]: 47%
remaining activity at 100 µM [3]: 31 to 60%
remaining activity at 100 µM [4]: 41%

CCN1CC(C(=O)O)n2c(c(-c3cccc(C(F)(F)F)c3)c(Cc3cccc4ccccc34)cc2=O)S1(=O)=O (single isomer, unassigned) [Compound 015a, 2-ethyl-8-(naphthalen-1-ylmethyl)-6-oxo-9-(3-(trifluoromethyl)phenyl)-3,4-dihydro-2H,6H-pyrido[1,2-e][1,2,5]thiadiazine-4-carboxylic acid 1,1-dioxide]
remaining activity at 25 µM [1]: 11 to 31%
remaining activity at 25 µM [2]: 25%
remaining activity at 100 µM [3]: 11 to 31%
remaining activity at 100 µM [4]: 17%

COc1ccc(CN2C[C@@H](C(=O)O)n3c(c(-c4cccc(C(F)(F)F)c4)c(Cc4cccc5ccccc45)cc3=O)S2(=O)=O)cc1 (single isomer, unassigned) [Compound 026a]
remaining activity at 25 µM [1]: 31 to 60%
remaining activity at 25 µM [2]: 41%

CN(C)CCN1CC(C(=O)O)n2c(c(-c3cccc(C(F)(F)F)c3)c(Cc3cccc4ccccc34)cc2=O)S1(=O)=O (stereo not shown) [Compound 017, 2-(2-(dimethylamino)ethyl)-8-(naphthalen-1-ylmethyl)-6-oxo-9-(3-(trifluoromethyl)phenyl)-3,4-dihydro-2H,6H-pyrido[1,2-e][1,2,5]thiadiazine-4-carboxylic acid 1,1-dioxide]
remaining activity at 25 µM [1]: > 60%
remaining activity at 25 µM [2]: 95%
remaining activity at 100 µM [3]: > 60%
remaining activity at 100 µM [4]: 70%

O=C(O)CN1CC(C(=O)O)n2c(c(-c3cccc(C(F)(F)F)c3)c(Cc3cccc4ccccc34)cc2=O)S1(=O)=O (stereo not shown) [Compound 018, 2-(carboxymethyl)-8-(naphthalen-1-ylmethyl)-6-oxo-9-(3-(trifluoromethyl)phenyl)-3,4-dihydro-2H,6H-pyrido[1,2-e][1,2,5]thiadiazine-4-carboxylic acid 1,1-dioxide]
remaining activity at 25 µM [1]: > 60%
remaining activity at 25 µM [2]: 95%
remaining activity at 100 µM [3]: 31 to 60%
remaining activity at 100 µM [4]: 60%

O=C(O)C1CSc2c(-c3cccc(C(F)(F)F)c3)c(Cc3cccc4ccccc34)nc(=O)n21 (stereo not shown) [Compound 022, 7-(naphthalen-1-ylmethyl)-5-oxo-8-(3-(trifluoromethyl)phenyl)-2,3-dihydro-5H-thiazolo[3,2-c]pyrimidine-3-carboxylic acid]
remaining activity at 25 µM [1]: > 60%
remaining activity at 25 µM [2]: 70%
remaining activity at 100 µM [3]: 11 to 31%
remaining activity at 100 µM [4]: 23%

Nc1c(Cc2cccc3ccccc23)c(-c2cccc(C(F)(F)F)c2)c2n(c1=O)C(C(=O)O)CS2(=O)=O (stereo not shown) [Compound 023, 6-amino-7-(naphthalen-1-ylmethyl)-5-oxo-8-(3-(trifluoromethyl)phenyl)-2,3-dihydro-5H-thiazolo[3,2-a]pyridine-3-carboxylic acid 1,1-dioxide]
remaining activity at 25 µM [1]: > 60%
remaining activity at 25 µM [2]: 73%
remaining activity at 100 µM [3]: 31 to 60%
remaining activity at 100 µM [4]: 34%

C=CCCN1CC(C(=O)O)n2c(c(-c3cccc(C(F)(F)F)c3)c(Cc3cccc4ccccc34)cc2=O)S1(=O)=O (stereo not shown) [Compound 024, 2-(but-3-en-1-yl)-8-(naphthalen-1-ylmethyl)-6-oxo-9-(3-(trifluoromethyl)phenyl)-3,4-dihydro-2H,6H-pyrido[1,2-e][1,2,5]thiadiazine-4-carboxylic acid 1,1-dioxide]
remaining activity at 25 µM [1]: 31 to 60%
remaining activity at 25 µM [2]: 35%
remaining activity at 100 µM [3]: 31 to 60%
remaining activity at 100 µM [4]: 39%

NC(=O)CN1CC(C(=O)O)n2c(c(-c3cccc(C(F)(F)F)c3)c(Cc3cccc4ccccc34)cc2=O)S1(=O)=O (stereo not shown) [Compound 028, 2-(2-amino-2-oxoethyl)-8-(naphthalen-1-ylmethyl)-6-oxo-9-(3-(trifluoromethyl)phenyl)-3,4-dihydro-2H,6H-pyrido[1,2-e][1,2,5]thiadiazine-4-carboxylic acid 1,1-dioxide]
remaining activity at 25 µM [1]: > 60%
remaining activity at 25 µM [2]: 66%
remaining activity at 100 µM [3]: 11 to 31%
remaining activity at 100 µM [4]: 27%

CN1CC(C(N)=O)n2c(c(-c3cccc(C(F)(F)F)c3)c(Cc3cccc4ccccc34)cc2=O)S1(=O)=O (stereo not shown) [Compound 030, 2-methyl-8-(naphthalen-1-ylmethyl)-6-oxo-9-(3-(trifluoromethyl)phenyl)-3,4-dihydro-2H,6H-pyrido[1,2-e][1,2,5]thiadiazine-4-carboxamide 1,1-dioxide]
remaining activity at 25 µM [1]: > 60%
remaining activity at 25 µM [2]: 82%

CN1CC(C(=O)O)n2c(c(-c3cccc(C(F)(F)F)c3)c(Cc3cccc4ccccc34)c(N)c2=O)S1(=O)=O (stereo not shown) [Compound 074, 7-amino-2-methyl-8-(naphthalen-1-ylmethyl)-6-oxo-9-(3-(trifluoromethyl)phenyl)-3,4-dihydro-2H,6H-pyrido[1,2-e][1,2,5]thiadiazine-4-carboxylic acid 1,1-dioxide]
remaining activity at 25 µM [1]: 11 to 31%
remaining activity at 25 µM [2]: 28%
remaining activity at 100 µM [3]: 11 to 31%
remaining activity at 100 µM [4]: 24%

CN(C)Cc1c(Cc2cccc3ccccc23)c(-c2cccc(C(F)(F)F)c2)c2n(c1=O)C(C(=O)O)CS2 (stereo not shown) [Compound 075, 6-((dimethylamino)methyl)-7-(naphthalen-1-ylmethyl)-5-oxo-8-(3-(trifluoromethyl)phenyl)-2,3-dihydro-5H-thiazolo[3,2-a]pyridine-3-carboxylic acid]
remaining activity at 25 µM [1]: > 60%
remaining activity at 25 µM [2]: 118%
remaining activity at 100 µM [3]: > 60%
remaining activity at 100 µM [4]: 117%
